From patent US9249127B2 (Orion Corporation, priority 2012, dated 2016)
Where two headings read alike, the source gives them in different places.

Biological target: T1, alpha2A receptor (Homo sapiens, UniProt P08913)
T1 sequence (P08913 1-465): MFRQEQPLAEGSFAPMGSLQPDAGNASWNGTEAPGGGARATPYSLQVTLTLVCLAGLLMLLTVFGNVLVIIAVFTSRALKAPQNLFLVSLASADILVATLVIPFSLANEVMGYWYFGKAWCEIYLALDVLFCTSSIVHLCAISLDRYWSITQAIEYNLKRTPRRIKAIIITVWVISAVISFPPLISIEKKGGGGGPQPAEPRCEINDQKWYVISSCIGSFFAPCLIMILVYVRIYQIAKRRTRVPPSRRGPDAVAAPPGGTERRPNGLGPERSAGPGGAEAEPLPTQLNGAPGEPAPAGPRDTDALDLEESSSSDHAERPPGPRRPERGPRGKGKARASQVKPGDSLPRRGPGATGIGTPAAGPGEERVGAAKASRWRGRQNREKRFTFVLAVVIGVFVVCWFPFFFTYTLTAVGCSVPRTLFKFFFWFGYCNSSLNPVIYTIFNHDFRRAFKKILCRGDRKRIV
Experiment: Alpha2A agonistic activity in vitro
Type: cell-based

[1] = Alpha2A Agonism pEC50, in vitro
[2] = in vitro, read-out: Alpha2A Agonism pEC50 (converted)

SMILES	EC50 [1] [nM]	Alpha2A Intrinsic Activity (in vitro)	EC50 [2] [nM]
CCC1Cc2c(C)cccc2C(C2=NCCN2)O1 (stereo not shown) [Example 27, 2-(3-Ethyl-5-methylisochroman-1-yl)-4,5-dihydro-1H-imidazole]	25.1	0.69	–
CC1Cc2c(Cl)cccc2C(C)(C2=NCCN2)O1 (stereo not shown) [Example 28, 2-(5-Chloro-1,3-dimethylisochroman-1-yl)-4,5-dihydro-1H-imidazole]	–	0.64	1000
CC1Cc2c(Br)cccc2C(C2=NCCN2)O1 (stereo not shown) [Example 29, 2-(5-Bromo-3-methylisochroman-1-yl)-4,5-dihydro-1H-imidazole]	2	0.99	–
Cc1cccc2c1CC(C)OC2(C)C1=NCCN1 (stereo not shown) [Example 30, 2-(1,3,5-Trimethylisochroman-1-yl)-4,5-dihydro-1H-imidazole]	–	0.60	794
CC1Cc2c(Br)cccc2C(C)(C2=NCCN2)O1 (stereo not shown) [Example 31, 2-(5-Bromo-1,3-dimethylisochroman-1-yl)-4,5-dihydro-1H-imidazole]	–	0.43	1260
C[C@@H]1Cc2c(Br)cccc2C(C2=NCCN2)O1 (stereo partly drawn) [Example 32, 2-((3R)-5-bromo-3-methylisochroman-1-yl)-4,5-dihydro-1H-imidazole]	1	0.92	–
C[C@@H]1Cc2c(Cl)cccc2C(C2=NCCN2)O1 (stereo partly drawn) [Example 33, 2-((3R)-5-chloro-3-methylisochroman-1-yl)-4,5-dihydro-1H-imidazole]	1.58	0.93	–
C[C@H]1Cc2c(Cl)cccc2C(C2=NCCN2)O1 (stereo partly drawn) [Example 34, 2-((3S)-5-chloro-3-methylisochroman-1-yl)-4,5-dihydro-1H-imidazole]	63.1	0.78	–
C[C@H]1Cc2c(Br)cccc2C(C2=NCCN2)O1 (stereo partly drawn) [Example 35, 2-((3S)-5-bromo-3-methylisochroman-1-yl)-4,5-dihydro-1H-imidazole]	15.8	0.80	–
Cc1cccc2c1C[C@@H](C)OC2C1=NCCN1 (stereo partly drawn) [Example 36, 2-((3R)-3,5-dimethylisochroman-1-yl)-4,5-dihydro-1H-imidazole]	1.58	0.90	–
Cc1cccc2c1C[C@H](C)OC2C1=NCCN1 (stereo partly drawn) [Example 37, 2-((3S)-3,5-dimethylisochroman-1-yl)-4,5-dihydro-1H-imidazole]	–	0.63	316
COc1cccc2c1CC(C)OC2C1=NCCN1 (stereo not shown) [Example 38, 2-(5-Methoxy-3-methylisochroman-1-yl)-4,5-dihydro-1H-imidazole]	12.6	0.92	–
CCc1cccc2c1CC(C)OC2C1=NCCN1 (stereo not shown) [Example 39, 2-(5-Ethyl-3-methylisochroman-1-yl)-4,5-dihydro-1H-imidazole]	15.8	0.67	–
CCCC1Cc2c(Br)cccc2C(C2=NCCN2)O1 (stereo not shown) [Example 40, 2-(5-Bromo-3-propylisochroman-1-yl)-4,5-dihydro-1H-imidazole]	–	0.31	316
CC(C)c1cccc2c1CCOC2C1=NCCN1 (stereo not shown) [Example 41, 2-(5-Isopropylisochroman-1-yl)-4,5-dihydro-1H-imidazole]	–	0.27	251
Fc1cccc2c1CCOC2C1=NCCN1 (stereo not shown) [Example 42, 2-(5-Fluoroisochroman-1-yl)-4,5-dihydro-1H-imidazole]	39.8	0.62	–
CCC1Cc2c(Br)cccc2C(C2=NCCN2)O1 (stereo not shown) [Example 43, 2-(5-Bromo-3-ethylisochroman-1-yl)-4,5-dihydro-1H-imidazole]	50.1	0.58	–
COc1cccc2c1C[C@@H](C)OC2C1=NCCN1 (stereo partly drawn) [Example 44, 2-((3R)-5-methoxy-3-methylisochroman-1-yl)-4,5-dihydro-1H-imidazole]	7.94	0.83	–
CCc1cccc2c1C[C@@H](C)OC2C1=NCCN1 (stereo partly drawn) [Example 45, 2-((3R)-5-ethyl-3-methylisochroman-1-yl)-4,5-dihydro-1H-imidazole]	6.31	0.73	–
CCC1Cc2c(OC)cccc2C(C2=NCCN2)O1 (stereo not shown) [Example 46, 2-(3-Ethyl-5-methoxyisochroman-1-yl)-4,5-dihydro-1H-imidazole]	79.4	0.45	–
CCc1cccc2c1C[C@@H](CC)OC2C1=NCCN1 (stereo partly drawn) [Example 47, 2-((3R)-3,5-diethylisochroman-1-yl)-4,5-dihydro-1H-imidazole]	–	0.22	2000
CC[C@@H]1Cc2c(C)cccc2C(C2=NCCN2)O1 (stereo partly drawn) [Example 48, 2-((3R)-3-ethyl-5-methylisochroman-1-yl)-4,5-dihydro-1H-imidazole]	25.1	0.58	–

SMILES	EC50 [1] [nM]	Alpha2A Intrinsic Activity (in vitro)	EC50 [2] [nM]
C[C@@H]1Cc2c(OC(F)(F)F)cccc2C(C2=NCCN2)O1 (stereo partly drawn) [Example 49, 2-((3R)-3-methyl-5-(trifluoromethoxy)isochroman-1-yl)-4,5-dihydro-1H-imidazole]	–	0.35	126
C[C@@H]1Cc2c(F)cccc2C(C2=NCCN2)O1 (stereo partly drawn) [Example 50, 2-((3R)-5-fluoro-3-methylisochroman-1-yl)-4,5-dihydro-1H-imidazole]	25.1	0.90	–
CCOc1cccc2c1CCOC2C1=NCCN1 (stereo not shown) [Example 51, 2-(5-Ethoxyisochroman-1-yl)-4,5-dihydro-1H-imidazole]	–	0.26	631
Cc1cccc2c1CC(CC(F)(F)F)OC2C1=NCCN1 (stereo not shown) [Example 52, 2-(5-Methyl-3-(2,2,2-trifluoroethyl)isochroman-1-yl)-4,5-dihydro-1H-imidazole]	–	0.41	100
COc1cccc2c1C[C@H](C)OC2C1=NCCN1 (stereo partly drawn) [Example 53, 2-((3S)-5-methoxy-3-methylisochroman-1-yl)-4,5-dihydro-1H-imidazole]	–	0.72	316
c1cc(-c2ccoc2)c2c(c1)C(C1=NCCN1)OCC2 (stereo not shown) [Example 54, 2-(5-(Furan-3-yl)isochroman-1-yl)-4,5-dihydro-1H-imidazole]	–	0.16	1000
CC#Cc1cccc2c1CCOC2C1=NCCN1 (stereo not shown) [Example 55, 2-(5-(Prop-1-yn-1-yl)isochroman-1-yl)-4,5-dihydro-1H-imidazole]	–	0.80	126
NC(=O)c1cccc2c1CCOC2C1=NCCN1 (stereo not shown) [Example 56, 1-(4,5-Dihydro-1H-imidazol-2-yl)isochroman-5-carboxamide]	–	0.11	3160
c1cc2c3c(c1)C(C1=NCCN1)OCC3CCCC2 (stereo not shown) [Example 57, 2-(3,7,8,9,10,10a-Hexahydro-1H-cyclohepta[de]isochromen-3-yl)-4,5-dihydro-1H-imidazole]	–	0.11	2000
CC(O)c1cccc2c1CCOC2C1=NCCN1 (stereo not shown) [Example 58, 1-(1-(4,5-Dihydro-1H-imidazol-2-yl)isochroman-5-yl)ethanol]	–	0.47	–
Cc1cc(C)c2c(c1)C(C1=NCCN1)OCC2 (stereo not shown) [Example 59, 2-(5,7-Dimethylisochroman-1-yl)-4,5-dihydro-1H-imidazole]	39.8	0.81	–
Cc1cc(Br)cc2c1CCOC2C1=NCCN1 (stereo not shown) [Example 60, 2-(7-Bromo-5-methylisochroman-1-yl)-4,5-dihydro-1H-imidazole]	–	0.66	126
COc1cc(C)c2c(c1)C(C1=NCCN1)OCC2 (stereo not shown) [Example 61, 2-(7-Methoxy-5-methylisochroman-1-yl)-4,5-dihydro-1H-imidazole]	–	0.81	–
Cc1cccc2c1CC(C)SC2C1=NCCN1 (stereo not shown) [Example 62, 2-(3,5-Dimethylisothiochroman-1-yl)-4,5-dihydro-1H-imidazole]	–	0.77	–
CC1Cc2c(Br)cccc2C(C2=NCCN2)S1 (stereo not shown) [Example 63, 2-(5-Bromo-3-methylisothiochroman-1-yl)-4,5-dihydro-1H-imidazole]	–	0.85	3160
Cc1cccc2c1CCSC2C1=NCCN1 (stereo not shown) [Example 64, 2-(5-Methylisothiochroman-1-yl)-4,5-dihydro-1H-imidazole]	79.4	0.59	–
Brc1cccc2c1CCSC2C1=NCCN1 (stereo not shown) [Example 65, 2-(5-Bromoisothiochroman-1-yl)-4,5-dihydro-1H-imidazole]	79.4	0.56	–
CC1(C2=NCCN2)SCCc2c(Br)cccc21 (stereo not shown) [Example 66, 2-(5-Bromo-1-methylisothiochroman-1-yl)-4,5-dihydro-1H-imidazole]	–	0.43	1580
CCC1Cc2c(Br)cc(Br)cc2C(C2=NCCN2)O1 (stereo not shown) [Example 67, 2-(5,7-Dibromo-3-ethylisochroman-1-yl)-4,5-dihydro-1H-imidazole]	–	0.42	1000
COc1cccc2c1CCOC2(C)C1=NCCN1 (stereo not shown) [Example 69, 2-(5-Methoxy-1-methylisochroman-1-yl)-4,5-dihydro-1H-imidazole]	–	0.19	–
COc1cccc2c1CCSC2C1=NCCN1 (stereo not shown) [Example 70, 2-(5-Methoxyisothiochroman-1-yl)-4,5-dihydro-1H-imidazole]	–	0.07	2000
